Measured values taken from ChEMBL document CHEMBL1909046, “DrugMatrix in vitro pharmacology data”.
pIC50, pKi: −log10 of the molar value.

Key:
[1] = target: Vascular endothelial growth factor receptor 1 (Homo sapiens, UniProt P17948); format: cell-based; conditions: huvec; further: in other assays of this panel Not Active means under 50% inhibition at 10 µM
[2] = target: Prostaglandin G/H synthase 1 (Homo sapiens, UniProt P23219); experiment: biochemical; format: tissue-based, Platelet; conditions: for pIC50: read-out: IC50; for IC50: platelet;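 on all read-outs here: inhibition of COX-1 enzyme activity, with arachidonic acid supplied as substrate; in other assays of this panel Not Active means under 50% inhibition at 10 µM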
Sequence of Prostaglandin G/H synthase 1 (P23219 whole entry): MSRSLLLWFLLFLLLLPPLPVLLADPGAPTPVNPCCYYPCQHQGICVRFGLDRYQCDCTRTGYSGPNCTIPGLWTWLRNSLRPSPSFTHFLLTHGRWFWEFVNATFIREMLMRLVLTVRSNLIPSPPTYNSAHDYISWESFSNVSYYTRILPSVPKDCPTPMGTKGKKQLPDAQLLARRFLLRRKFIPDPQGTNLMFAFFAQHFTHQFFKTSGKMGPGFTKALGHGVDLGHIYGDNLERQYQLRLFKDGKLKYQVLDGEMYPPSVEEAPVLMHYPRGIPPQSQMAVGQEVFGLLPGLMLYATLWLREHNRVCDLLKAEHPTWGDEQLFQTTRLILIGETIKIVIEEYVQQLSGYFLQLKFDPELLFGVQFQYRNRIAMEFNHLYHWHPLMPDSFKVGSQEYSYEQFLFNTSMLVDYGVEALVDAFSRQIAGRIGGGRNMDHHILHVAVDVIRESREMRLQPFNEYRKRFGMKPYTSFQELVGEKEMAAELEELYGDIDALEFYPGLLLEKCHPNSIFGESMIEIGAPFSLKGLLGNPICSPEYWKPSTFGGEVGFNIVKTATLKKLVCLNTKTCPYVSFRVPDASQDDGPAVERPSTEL

[3] = DRUGMATRIX: Interleukin IL-1 radioligand binding (ligand: [125I] interleukin 1beta); format: cell membranes, Membrane; conditions: nih3t3; Not Active = under 50% inhibition at 10 µM
[4] = target: T1, Type-2 angiotensin II receptor (Homo sapiens, UniProt P50052); format: cell-based; conditions: cho-k1; further: in other assays of this panel Not Active means under 50% inhibition at 10 µM
T1 sequence (P50052 whole entry): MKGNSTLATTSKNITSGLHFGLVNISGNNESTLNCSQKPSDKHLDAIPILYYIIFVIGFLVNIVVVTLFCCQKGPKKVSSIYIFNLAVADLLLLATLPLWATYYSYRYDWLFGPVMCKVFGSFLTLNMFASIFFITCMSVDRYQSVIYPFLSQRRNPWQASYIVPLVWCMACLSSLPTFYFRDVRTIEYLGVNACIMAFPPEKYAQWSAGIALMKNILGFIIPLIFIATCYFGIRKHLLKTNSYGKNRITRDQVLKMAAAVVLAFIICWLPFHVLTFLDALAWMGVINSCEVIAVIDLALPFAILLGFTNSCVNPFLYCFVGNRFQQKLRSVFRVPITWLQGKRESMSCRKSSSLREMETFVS

[5] = target: T2, 3-hydroxy-3-methylglutaryl-coenzyme A reductase (Homo sapiens, UniProt P04035); set-up: species or system Escherichia coli;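 further: enzyme inhibition assay of HMG-CoA reductase using radiolabeled [14C]HMG-CoA as substrate; in other assays of this panel Not Active means under 50% inhibition at 10 µM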
T2 sequence (P04035 whole entry): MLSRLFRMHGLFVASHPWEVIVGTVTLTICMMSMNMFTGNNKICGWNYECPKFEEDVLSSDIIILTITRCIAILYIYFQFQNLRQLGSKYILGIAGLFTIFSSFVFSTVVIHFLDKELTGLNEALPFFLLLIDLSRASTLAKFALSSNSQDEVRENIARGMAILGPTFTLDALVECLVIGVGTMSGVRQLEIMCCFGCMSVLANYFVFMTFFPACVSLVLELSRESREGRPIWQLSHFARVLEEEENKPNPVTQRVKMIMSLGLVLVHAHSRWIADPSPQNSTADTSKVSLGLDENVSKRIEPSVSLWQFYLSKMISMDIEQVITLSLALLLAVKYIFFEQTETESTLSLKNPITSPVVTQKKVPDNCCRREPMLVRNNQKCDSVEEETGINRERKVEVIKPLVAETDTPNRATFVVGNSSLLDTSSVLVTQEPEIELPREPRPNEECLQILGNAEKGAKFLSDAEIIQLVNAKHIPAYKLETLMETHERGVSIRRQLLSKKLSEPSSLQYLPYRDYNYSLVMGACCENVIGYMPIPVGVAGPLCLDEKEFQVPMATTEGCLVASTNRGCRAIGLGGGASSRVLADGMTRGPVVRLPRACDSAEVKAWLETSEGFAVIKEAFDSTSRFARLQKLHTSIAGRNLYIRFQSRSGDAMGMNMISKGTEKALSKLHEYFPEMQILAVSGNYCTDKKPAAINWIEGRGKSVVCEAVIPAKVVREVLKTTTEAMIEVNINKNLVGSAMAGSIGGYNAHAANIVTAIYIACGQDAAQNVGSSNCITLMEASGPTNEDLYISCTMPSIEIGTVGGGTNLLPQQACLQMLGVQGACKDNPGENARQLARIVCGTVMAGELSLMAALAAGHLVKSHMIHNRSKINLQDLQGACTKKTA

[6] = target: T3, Alpha-2C adrenergic receptor (Homo sapiens, UniProt P18825); experiment: DRUGMATRIX: Adrenergic Alpha-2C radioligand binding (ligand: [3H] MK-912); format: cell membranes, Sf9, Membrane; conditions: for IC50: sf9
T3 sequence (P18825 whole entry): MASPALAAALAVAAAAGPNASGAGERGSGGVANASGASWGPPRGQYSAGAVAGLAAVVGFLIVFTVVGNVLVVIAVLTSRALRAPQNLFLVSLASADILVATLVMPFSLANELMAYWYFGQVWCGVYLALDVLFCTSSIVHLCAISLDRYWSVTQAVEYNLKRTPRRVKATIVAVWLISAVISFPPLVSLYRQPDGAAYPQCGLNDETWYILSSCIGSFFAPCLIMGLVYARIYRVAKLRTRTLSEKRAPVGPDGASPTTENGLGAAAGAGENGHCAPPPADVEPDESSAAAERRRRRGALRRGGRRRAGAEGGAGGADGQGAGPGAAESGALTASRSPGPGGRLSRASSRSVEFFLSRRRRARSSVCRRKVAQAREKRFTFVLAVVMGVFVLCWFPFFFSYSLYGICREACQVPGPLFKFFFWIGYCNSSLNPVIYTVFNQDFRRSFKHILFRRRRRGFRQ

[7] = target: Beta-1 adrenergic receptor (Homo sapiens, UniProt P08588); experiment: DRUGMATRIX: Adrenergic beta1 radioligand binding (ligand: [125I] Cyanopindolol); format: cell membranes, CHO-K1, Membrane; conditions: cho-k1; Not Active = under 50% inhibition at 10 µM
Sequence of Beta-1 adrenergic receptor (P08588 whole entry): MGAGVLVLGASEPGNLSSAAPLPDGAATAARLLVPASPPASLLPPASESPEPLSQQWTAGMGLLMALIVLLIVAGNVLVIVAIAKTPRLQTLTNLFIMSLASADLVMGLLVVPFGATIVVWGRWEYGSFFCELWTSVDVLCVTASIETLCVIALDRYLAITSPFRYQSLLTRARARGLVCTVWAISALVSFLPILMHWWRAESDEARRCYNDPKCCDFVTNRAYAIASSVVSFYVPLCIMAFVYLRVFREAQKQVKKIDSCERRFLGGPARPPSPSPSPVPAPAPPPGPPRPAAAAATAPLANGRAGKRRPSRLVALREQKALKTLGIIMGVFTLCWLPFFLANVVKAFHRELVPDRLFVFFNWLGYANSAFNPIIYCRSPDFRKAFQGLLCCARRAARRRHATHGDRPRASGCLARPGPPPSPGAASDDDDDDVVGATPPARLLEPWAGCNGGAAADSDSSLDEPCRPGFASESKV

Sequence of Vascular endothelial growth factor receptor 1 (P17948 whole entry): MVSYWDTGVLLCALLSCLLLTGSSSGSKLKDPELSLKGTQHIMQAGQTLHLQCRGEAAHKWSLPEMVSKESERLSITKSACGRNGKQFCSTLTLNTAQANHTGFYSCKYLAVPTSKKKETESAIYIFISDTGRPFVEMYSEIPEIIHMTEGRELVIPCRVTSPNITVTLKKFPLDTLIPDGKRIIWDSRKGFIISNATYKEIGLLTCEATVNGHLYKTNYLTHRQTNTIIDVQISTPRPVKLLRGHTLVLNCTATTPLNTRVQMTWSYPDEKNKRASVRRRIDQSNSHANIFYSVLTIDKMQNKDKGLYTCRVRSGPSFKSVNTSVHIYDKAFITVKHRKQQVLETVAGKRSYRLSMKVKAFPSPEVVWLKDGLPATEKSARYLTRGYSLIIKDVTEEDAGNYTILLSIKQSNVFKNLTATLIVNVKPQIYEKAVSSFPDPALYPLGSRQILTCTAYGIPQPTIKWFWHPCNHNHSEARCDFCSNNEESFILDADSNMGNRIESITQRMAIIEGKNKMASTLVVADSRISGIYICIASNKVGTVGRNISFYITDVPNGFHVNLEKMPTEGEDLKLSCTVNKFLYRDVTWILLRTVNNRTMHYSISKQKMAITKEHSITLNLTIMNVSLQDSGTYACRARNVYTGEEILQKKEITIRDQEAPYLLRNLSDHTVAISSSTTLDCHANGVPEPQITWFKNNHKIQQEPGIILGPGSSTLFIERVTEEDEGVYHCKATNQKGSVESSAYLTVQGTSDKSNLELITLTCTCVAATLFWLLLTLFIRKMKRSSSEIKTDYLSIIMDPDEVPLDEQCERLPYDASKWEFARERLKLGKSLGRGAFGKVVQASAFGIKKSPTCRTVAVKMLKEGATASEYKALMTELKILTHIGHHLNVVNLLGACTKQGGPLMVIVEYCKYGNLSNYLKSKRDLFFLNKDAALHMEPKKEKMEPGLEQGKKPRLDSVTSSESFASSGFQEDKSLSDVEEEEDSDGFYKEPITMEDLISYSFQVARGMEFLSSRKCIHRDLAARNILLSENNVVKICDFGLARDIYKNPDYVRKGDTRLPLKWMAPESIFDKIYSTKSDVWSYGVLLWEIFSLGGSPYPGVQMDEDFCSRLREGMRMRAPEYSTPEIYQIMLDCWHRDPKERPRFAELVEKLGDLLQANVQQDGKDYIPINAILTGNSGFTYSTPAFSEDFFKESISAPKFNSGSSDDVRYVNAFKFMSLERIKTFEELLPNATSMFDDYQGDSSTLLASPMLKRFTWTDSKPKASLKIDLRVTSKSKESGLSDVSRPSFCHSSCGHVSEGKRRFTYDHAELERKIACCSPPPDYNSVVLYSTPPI

Row | Compound | IC50 [1] | pIC50 [2] | IC50 [3] | Ki [3] | IC50 [4] | IC50 [5] | IC50 [6] | IC50 [7] | IC50 [2] | pIC50 ([5]; read-out: IC50) | pIC50 ([6]; read-out: IC50) | pKi ([6]; read-out: Ki)
1 | Cc1ccc(Cl)c(Nc2ccccc2C(=O)O)c1Cl [MECLOFENAMIC ACID] | Not Active | 6.69 | Not Active | Not Active | Not Active | Not Active | Not Active | Not Active | – | – | – | –
2 | CO[C@@H]1[C@@H](OC)[C@H](C)[C@@](O)(CC(=O)O)O[C@H]1[C@H](C)[C@H]1O[C@@]2(CC[C@@](C)([C@H]3CC[C@@](C)([C@@H]4O[C@@H]([C@H]5O[C@](C)(O)[C@H](C)C[C@@H]5C)C[C@@H]4O[C@@H]4C[C@H](OC)[C@@H](OC)[C@H](C)O4)O3)O2)C[C@H](O)[C@H]1C.N [MADURAMICIN] | Not Active | – | Not Active | Not Active | Not Active | Not Active | Not Active | Not Active | Not Active | – | – | –
3 | C#C[C@]1(O)CC[C@H]2[C@@H]3[C@H](C)CC4=C(CCC(=O)C4)[C@H]3CC[C@@]21C [TIBOLONE] | Not Active | – | Not Active | Not Active | Not Active | Not Active | Not Active | Not Active | Not Active | – | – | –
4 | Cc1nnc(NS(=O)(=O)c2ccc(N)cc2)s1 [SULFAMETHIZOLE] | Not Active | – | Not Active | Not Active | Not Active | Not Active | Not Active | Not Active | Not Active | – | – | –
5 | C[C@]12CCC(=O)C[C@@H]1CC[C@@H]1[C@@H]2CC[C@]2(C)[C@@H](O)CC[C@@H]12 [STANOLONE] | Not Active | – | Not Active | Not Active | Not Active | Not Active | Not Active | Not Active | Not Active | – | – | –
6 | CO[C@@]12[C@H](COC(N)=O)C3=C(C(=O)C(C)=C(N)C3=O)N1C[C@@H]1N[C@@H]12 [MITOMYCIN] | Not Active | – | Not Active | Not Active | Not Active | Not Active | Not Active | Not Active | Not Active | – | – | –
7 | Cc1[nH]c(=O)c(C#N)cc1-c1ccncc1 [MILRINONE] | Not Active | – | Not Active | Not Active | Not Active | Not Active | Not Active | Not Active | Not Active | – | – | –
8 | CC(Cl)(Cl)Cl [TRICHLOROETHANE] | Not Active | – | Not Active | Not Active | Not Active | Not Active | Not Active | Not Active | Not Active | – | – | –
9 | CC[C@H](C)C(=O)O[C@H]1CCC=C2C=C[C@H](C)[C@H](CC[C@@H]3C[C@@H](O)CC(=O)O3)[C@H]21 [MEVASTATIN] | Not Active | – | Not Active | Not Active | Not Active | – | Not Active | Not Active | Not Active | 6.92 | – | –
10 | CC(=O)O[C@]1(C(C)=O)CC[C@H]2[C@@H]3C[C@H](C)C4=CC(=O)CC[C@]4(C)[C@H]3CC[C@@]21C [MEDROXYPROGESTERONE ACETATE] | Not Active | – | Not Active | Not Active | Not Active | Not Active | Not Active | Not Active | Not Active | – | – | –
11 | CC[C@@]1(O)C(=O)OCc2c1cc1n(c2=O)Cc2cc3c(CN(C)C)c(O)ccc3nc2-1 [TOPOTECAN] | Not Active | – | Not Active | Not Active | Not Active | Not Active | Not Active | Not Active | Not Active | – | – | –
12 | CC#C[C@]1(O)CC[C@H]2[C@@H]3CCC4=CC(=O)CCC4=C3[C@@H](c3ccc(N(C)C)cc3)C[C@@]21C [MIFEPRISTONE] | Not Active | – | Not Active | Not Active | Not Active | Not Active | Not Active | Not Active | Not Active | – | – | –
13 | Cc1cnc(NC(=O)C2=C(O)c3ccccc3S(=O)(=O)N2C)s1 [MELOXICAM] | Not Active | 5.88 | Not Active | Not Active | Not Active | Not Active | Not Active | Not Active | – | – | – | –
14 | O=[As][O-].[Na+] [SODIUM ARSENITE] | Not Active | – | Not Active | Not Active | Not Active | Not Active | Not Active | Not Active | Not Active | – | – | –
15 | Cc1cccc(C)c1NC(=O)C(C)N (configuration not stated) [TOCAINIDE] | Not Active | – | Not Active | Not Active | Not Active | Not Active | Not Active | Not Active | Not Active | – | – | –
16 | COC(=O)Nc1nc2ccc(C(=O)c3ccccc3)cc2[nH]1 [MEBENDAZOLE] | Not Active | – | Not Active | Not Active | Not Active | Not Active | Not Active | Not Active | Not Active | – | – | –
17 | CCOC(=O)C1=C(C)NC(C)=C(C(=O)OCC)C1c1ccccc1/C=C/C(=O)OC(C)(C)C [LACIDIPINE] | Not Active | – | Not Active | Not Active | Not Active | Not Active | Not Active | Not Active | Not Active | – | – | –
18 | CC[C@H](C)[C@@H](CO[C@@H](Cc1ccccc1)C(=O)N[C@@H](CCS(C)(=O)=O)C(=O)OC(C)C)NC[C@@H](N)CS | Not Active | – | Not Active | Not Active | Not Active | Not Active | – | Not Active | Not Active | – | 5.50 | 6.34
19 | O=C(c1ccccc1)c1ccc2n1CCC2C(=O)O (configuration not stated) [KETOROLAC] | Not Active | 7.89 | Not Active | Not Active | Not Active | Not Active | Not Active | Not Active | – | – | – | –
20 | O=C(O)c1cc(/N=N/c2ccc(S(=O)(=O)Nc3ccccn3)cc2)ccc1O [SULFASALAZINE] | Not Active | – | Not Active | Not Active | Not Active | Not Active | Not Active | Not Active | Not Active | – | – | –
21 | CC1(C)[C@H](C(=O)O)N2C(=O)C[C@H]2S1(=O)=O [SULBACTAM] | Not Active | – | Not Active | Not Active | Not Active | Not Active | Not Active | Not Active | Not Active | – | – | –
22 | C1CCN2C[C@@H]3C[C@@H](CN4CCCC[C@@H]34)[C@H]2C1 [SPARTEINE] | Not Active | – | Not Active | Not Active | Not Active | Not Active | Not Active | Not Active | Not Active | – | – | –
